Columns and labels:
Assay type in all cases: cell-based, human
ADAR1 = test: genome-wide A-to-I editing loci counts in Alus (RNA-seq)
From the text: G, Genome-wide A-to-I editing loci counts in Alus in the RNA-seq data performed in the total cytoplasmic fraction (‘Total CytoRNA’) and in the MDA5-protected fraction (‘MDA5-protected’) at the mock-treated (MT) ADAR1^WT, 5-AZA-CdR-treated ADAR1^WT, mock-treated ADAR1^KD, and 5-AZA-CdR-treated ADAR1^KD conditions.
Next, we tested whether epigenetic therapy can induce and activate ADAR1 editing activity.

MAVS = MAVS aggregation by SDS-AGE; conditions: ADAR1-depleted, mitochondrial fraction of cell lysates
From the text: J, MAVS aggregation analyzed by SDS-AGE and MAVS protein level analyzed by SDS-PAGE. VDAC served as a loading control in SDS-PAGE.
(§1) Based on these findings, we hypothesized that ADAR1 depletion would synergize with the viral mimicry response induced by DNMTi treatment. To assess how ADAR1 depletion affects 5-AZA-CdR treated samples, we performed RNA-seq analyses in patient-derived CRC cells. […] As a molecular read-out of dsRNA pattern recognition activation, we measured MAVS aggregation in the mitochondrial fraction of cell lysates^34. […] Taken together, our findings establish that ADAR1 acts as a negative feedback loop, restricting the viral mimicry response induced by DNMTi treatment in cancer cells.

[1] = system: interferon stimulated genes (ISG15, DDX58 and IRF7); test: interferon response / ISG expression by RNA-seq GSEA and qRT-PCR in patient-derived CRC cells
From the text: H, Geneset Enrichment Analysis showing an enrichment of the geneset ‘Hallmark_Interferon_Alpha_Response’ in ADAR1^KD 5-AZA-treated cells compared to ADAR1^WT 5-AZA-CdR treated cells.
I, Interferon-responsive geneset enrichment score in mock-treated ADAR1^WT, 5-AZA-CdR-treated ADAR1^WT, mock-treated ADAR1^KD, and 5-AZA-CdR-treated ADAR1^KD conditions. Samples were collected 5, 14, and 24 days post-treatment.
B, Kinetics of interferon stimulated genes (ISG15, DDX58 and IRF7) relative expression in ADAR1^WT (Black) and ADAR1^KD (Gray) patient-derived colorectal cancer cells (CRCs) treated with 5-AZA-CdR analyzed by qRT-PCR. Data are mean±s.e.m. (n=3 from three independent experiments). *P<0.05, **P<0.01, ****P<0.0001, Sidak-corrected two-way ANOVA.
C, Interferon-responsive gene expression in ADAR1^WT mock-treated (MT), 5-AZA-CdR treated, ADAR1^KD NT and ADAR1^KD p(I:C) transfected samples collected 5 days, 14 days and 24 days post-treatment, measured by RNA-seq.
D, Kinetics of interferon stimulated genes (ISG15, DDX58 and IRF7) relative expression in ADAR1^WT (Black) and ADAR1^KD (Gray) patient-derived CRCs transfected with p(I:C), analyzed by qRT-PCR. Data are mean±s.e.m. **P<0.01, ****P<0.0001, Sidak-corrected two-way ANOVA.
F, Interferon stimulated genes (ISG15, DDX58 and IRF7) relative expression in CTRL (LUC) (Black) and ADAR1^p150CE (Gray) patient-derived CRCs treated with 5-AZA-CdR, analyzed by qRT-PCR. Data are mean±s.e.m. **P<0.01, ***P<0.001, Sidak-corrected two-way ANOVA.
G, IFN enrichment score in CTRL(LUC) Mock-treated, 5-AZA-CdR treated, ADAR1-p150 overexpressing NT and ADAR1-p150 overexpressing 5-AZA-CdR treated samples collected 5 days post-treatment and measured by RNA-seq.
as §1

[2] = system: patient-derived CRC cells; test: survival of patient-derived CRC cells, luminescence dose-response; conditions: in vitro, ADAR1-knockdown vs wild-type patient-derived CRC cells
Procedure: A, Survival of wild-type ADAR1 (black) and ADAR1-knockdown (gray) patient-derived CRC cells after treatment with 5-AZA-CdR. Luminescence signal was normalized, and dose-response curves and EC50 values were calculated using a nonlinear regression curve fit.
Finally, we sought to investigate whether ADAR1 inhibition would synergize with epigenetic therapy to increase the anti-tumour response. […] To examine the potential synergy in vivo, we injected ADAR1^KDA/B or wildtype patient-derived xenograft CRC cells subcutaneously into immune-deficient NOD.Cg-Prkdc (NSG) mice, and treated the mice with 5-AZA-CdR or vehicle (PBS) (FIG. 12B and FIG. 13A). […] Thus, ADAR1 inhibition in human cancer cells profoundly sensitizes tumours to 5-AZA-CdR treatment in vivo.

[3] = system: HT29 colorectal cancer cell lines; test: ISG relative expression in HT29 cells; conditions: HT29, ADAR1 KD vs WT, 300 nM for 5 days
Procedure: D) Interferon-stimulated genes (MDA5, ISG15 and DDX58) relative expression in ADAR1^WT and ADAR1^KD HT29 colorectal cancer cell lines treated with 300 nM 5-AZA-CdR for 5 days. Data are mean±s.e.m. (n=3 from three independent experiments). *P<0.05, **P<0.01, ***P<0.001, ****P<0.0001, Tukey-corrected two-way ANOVA.
as §1

[4] = system: patient-derived CRC cells; test: in vitro sphere initiation assay followed by limiting dilution analysis (LDA); conditions: ADAR1-depleted CRC cells treated with 5-AZA-CdR
Procedure: B, The normalized percentage of reduction in sphere forming ability was calculated in each condition compared to Mock-treated.
One of the major challenges facing conventional chemotherapy is the persistence of cancer initiating cells (CICs), often resulting in relapse^38-40. We and others have previously shown that 5-AZA-CdR treatment can target colorectal cancer CICs by inducing the viral mimicry response^1,41. We therefore tested whether ADAR1^KD by itself or in combination with 5-AZA-CdR can decrease tumour initiation. To this end, we first employed an in vitro sphere initiation assay followed by limiting dilution analysis (LDA) using patient-derived CRC cells. […] In addition, we performed in vivo tumour initiation assays by injecting serially diluted patient-derived CRC cells into NSG immunodeficient mice and inspected tumour engraftment for up to 6 months after injection (FIG. 12F).

Nc1ncn([C@H]2C[C@H](O)[C@@H](CO)O2)c(=O)n1 [5-AZA-CdR]
A-to-I editing of MDA5-protected Alus (ADAR1; ADAR1-depleted cells): depletion of ADAR1 abrogated this effect
A-to-I editing of MDA5-protected Alus (ADAR1; ADAR1 WT cells): genome-wide increased A-to-I editing
MAVS activation (aggregation) (MAVS): enhanced MAVS activation
type I interferon response (GSEA) ([1]; ADAR1-depleted vs wild-type samples, both treated with 5-AZA-CdR): the most enriched pathway
persistence of enhanced interferon/ISG response ([1]; ADAR1-depleted vs wild-type, after initial treatment): persisted as long as twenty-four days after initial treatment
viral mimicry (expression of ISGs and dsRNA formation) ([1]; CRC cells overexpressing ADAR1p150): rescues the ability of 5-AZA-CdR to induce viral mimicry
reduction of EC50 by ADAR1 knock-down [2]: four to six-fold reduction
expression of IFN stimulated genes (ISGs) [3]: enhanced upon ADAR1 depletion
spheroid forming potential [4]: reduced the spheroid forming potential

— patent US20230265524A1, “IMMUNOGENIC RETROELEMENTS AND THEIR USE IN CANCER THERAPY” (UNIVERSITY HEALTH NETWORK, priority 2020, published 2023)
